Results as given in patent publication US12435068B2, “Anthelmintic compounds” (Elanco Animal Health GmBh, priority 2018, dated 2025).
Values after ≈ are worked out from the molar mass of the structure shown.

Key:
[1] = test system: Dirofilaria immitis larvae; experiment: In Vitro Assay 3: Dirofilaria immitis (DIROIM L4) larval motility; assay type: cell-based; details: 72 h, read-out: EC50 ppm
[2] = test system: Dirofilaria immitis microfilariae; experiment: In Vitro Assay 2: Dirofilaria immitis microfilariae (DIROIM L1) motility; assay type: cell-based; details: 72 h, read-out: EC50 ppm
C. elegans Slo-1a = C. elegans Slo-1a (Caenorhabditis elegans, UniProt Q95V25)
C. elegans Slo-1a, sequence (Q95V25 whole entry): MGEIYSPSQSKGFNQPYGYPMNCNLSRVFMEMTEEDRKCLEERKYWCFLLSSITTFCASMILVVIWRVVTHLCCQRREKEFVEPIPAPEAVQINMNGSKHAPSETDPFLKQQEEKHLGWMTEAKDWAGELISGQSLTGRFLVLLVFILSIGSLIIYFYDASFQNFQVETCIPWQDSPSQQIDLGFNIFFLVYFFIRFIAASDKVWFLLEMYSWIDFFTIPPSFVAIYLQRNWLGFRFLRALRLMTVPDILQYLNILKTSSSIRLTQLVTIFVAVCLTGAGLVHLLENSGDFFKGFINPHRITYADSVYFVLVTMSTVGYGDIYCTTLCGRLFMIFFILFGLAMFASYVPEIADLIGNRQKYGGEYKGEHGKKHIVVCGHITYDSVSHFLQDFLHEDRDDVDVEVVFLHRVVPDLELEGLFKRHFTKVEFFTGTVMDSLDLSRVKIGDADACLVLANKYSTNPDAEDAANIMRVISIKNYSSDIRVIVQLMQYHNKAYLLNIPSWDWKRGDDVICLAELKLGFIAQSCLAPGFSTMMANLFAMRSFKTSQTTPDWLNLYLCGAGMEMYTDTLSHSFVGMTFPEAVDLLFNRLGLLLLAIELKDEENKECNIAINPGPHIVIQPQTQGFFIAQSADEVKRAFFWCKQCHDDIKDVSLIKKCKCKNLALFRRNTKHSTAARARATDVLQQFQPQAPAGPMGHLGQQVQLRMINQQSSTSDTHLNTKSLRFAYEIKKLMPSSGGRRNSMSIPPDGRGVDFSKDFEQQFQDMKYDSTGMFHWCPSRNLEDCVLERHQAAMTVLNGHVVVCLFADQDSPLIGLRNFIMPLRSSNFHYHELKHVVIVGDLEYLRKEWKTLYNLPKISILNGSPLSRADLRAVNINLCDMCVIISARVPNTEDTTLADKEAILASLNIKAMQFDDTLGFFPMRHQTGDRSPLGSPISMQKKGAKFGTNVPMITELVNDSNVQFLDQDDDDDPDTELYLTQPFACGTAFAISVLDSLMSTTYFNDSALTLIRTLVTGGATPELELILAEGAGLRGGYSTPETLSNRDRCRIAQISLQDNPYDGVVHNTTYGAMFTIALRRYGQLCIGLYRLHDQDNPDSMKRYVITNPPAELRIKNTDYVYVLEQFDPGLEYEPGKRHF
Description: Cells were cultured at 37° C. and 5% CO2 in MEMalpha with Gutamax I (Invitrogen, Nr.: 32571), supplemented with 10% (v/v) heat inactivated fetal bovine serum (Invitrogen, Nr.: 10500), G418 (1 mg/ml, Invitrogen, Nr.: 10131). Cells were detached using Accutase (Sigma, Nr.: A6964).
Membrane Potential Measurements
Laboratory compound testing was performed on 384-well microtiter plates (MTPs, Greiner, Nr.: 781092). 8000 cells/well were plated onto 384-well MTPs and cultured for 20 to 24 hours at 37° C. and 5% CO2. After removal of the cell culture medium, the cells were washed once with tyrode (150 mM NaCl, 0.3 mM KCl, 2 mM CaCl2, 1 mM MgCl2, 0.8 mM NaH2PO4, 5 mM Glucose, 28 mM Hepes, pH 7.4) and then loaded with the voltage sensitive dye of the Membrane Potential Assay Kit diluted in tyrode for 1 h at room temperature.
After starting the measurement of fluorescence using a FLIPR Tetra (Molecular Devices, Exc. 510-545 nm, Emm. 565-625 nm), test compounds were added followed by the addition of KCl tyrode (final assay concentration: 70 mM KCl, 2 mM CaCl2, 1 mM MgCl2, 0.8 mM NaH2PO4, 5 mM Glucose, 28 mM Hepes, pH 7.4, including the voltage sensitive dye). The measurement was completed after 7 minutes.

CC(C)c1c(C(=O)N[C@H]2CCOc3ccccc32)sc2c(-c3cccc(Cl)c3)cccc12 [Example Compound S1-2, 7-(3-Chlorophenyl)-N-[(4S)-3,4-dihydro-2H-chromen-4-yl]-3-isopropyl-1-benzothiophene-2-carboxamide]
EC50 [1]: > 0.08 µg/mL | EC50 [2]: 0.03 µg/mL (≈ 0.0649 µM) | EC50 (C. elegans Slo-1a): 3.98 nM

CC(C)c1c(C(=O)N[C@H]2CCOc3ccccc32)sc2c(-c3cccc(Cl)c3Cl)cccc12 [Example Compound S1-3, 7-(2,3-Dichlorophenyl)-N-[(4S)-3,4-dihydro-2H-chromen-4-yl]-3-isopropyl-1-benzothiophene-2-carboxamide]
EC50 [1]: 0.03 µg/mL (≈ 0.0604 µM) | EC50 [2]: 0.01 µg/mL (≈ 0.0201 µM) | EC50 (C. elegans Slo-1a): 0.631 nM

COc1c(C(=O)N[C@H]2CCOc3ccccc32)sc2c(-c3cccc(Cl)c3Cl)cccc12 [Example Compound S1-11, 7-(2,3-Dichlorophenyl)-N-[(4S)-3,4-dihydro-2H-chromen-4-yl]-3-methoxy-1-benzothiophene-2-carboxamide]
EC50 [1]: > 0.08 µg/mL | EC50 [2]: 0.04 µg/mL (≈ 0.0826 µM) | EC50 (C. elegans Slo-1a): 31.6 nM

CC(C)n1c(C(=O)N[C@H]2CCOc3ccccc32)cc2c(-c3cc(F)cc(F)c3F)cccc21 [Example Compound S2-6, N-[(4S)-3,4-Dihydro-2H-chromen-4-yl]-1-(propan-2-yl)-4-(2,3,5-trifluorophenyl)-1H-indole-2-carboxamide]
EC50 [1]: 0.08 µg/mL (≈ 0.172 µM) | EC50 [2]: 0.0086 µg/mL (≈ 0.0185 µM) | EC50 (C. elegans Slo-1a): 15.8 nM

CC(C)C1=C(C(=O)N[C@H]2CCOc3ccccc32)COc2c1cccc2-c1cc(Cl)cc(Cl)c1 [Example Compound S8a-1, 8-(3,5-Dichlorophenyl)-N-[(4S)-3,4-dihydro-2H-chromen-4-yl]-4-(propan-2-yl)-2H-chromene-3-carboxamide]
EC50 [1]: 0.04 µg/mL (≈ 0.0809 µM) | EC50 [2]: < 0.0032 µg/mL | EC50 (C. elegans Slo-1a): 3.16 nM

CC(C)c1c(C(=O)N[C@H]2CCOc3ccccc32)c(=O)oc2c(-c3cc(Cl)cc(Cl)c3)cccc12 [Example Compound S8a-2, 8-(3,5-Dichlorophenyl)-N-[(4S)-3,4-dihydro-2H-chromen-4-yl]-2-oxo-4-(propan-2-yl)-2H-chromene-3-carboxamide]
EC50 [1]: 0.18 µg/mL (≈ 0.354 µM) | EC50 [2]: < 0.0032 µg/mL | EC50 (C. elegans Slo-1a): 1.26 nM

O=C(N[C@H]1CCOc2ccccc21)C1=Cc2cccc(-c3cccc(Cl)c3Cl)c2OC1 [Example Compound S8a-5, 8-(2,3-Dichlorophenyl)-N-[(4S)-3,4-dihydro-2H-chromen-4-yl]-2H-chromene-3-carboxamide]
EC50 [1]: 0.04 µg/mL (≈ 0.0884 µM) | EC50 [2]: 0.09 µg/mL (≈ 0.199 µM) | EC50 (C. elegans Slo-1a): 5.01 nM

CC1=C(C(=O)N[C@H]2CCc3ccccc32)C(C)c2cccc(-c3cc(Cl)cc(Cl)c3)c2O1 (stereo partly drawn) [Example Compound S8b-1, 8-(3,5-Dichlorophenyl)-N-[(1S)-2,3-dihydro-1H-inden-1-yl]-2,4-dimethyl-4H-chromene-3-carboxamide]
EC50 [1]: > 0.4 µg/mL | EC50 [2]: 1.47 µg/mL (≈ 3.17 µM)

CC1=C(C(=O)N[C@H]2CCCc3ccccc32)C(C)c2cccc(-c3cc(F)cc(F)c3F)c2O1 (stereo partly drawn) [Example Compound S8b-2, 2,4-Dimethyl-N-[(1S)-1,2,3,4-tetrahydronaphthalen-1-yl]-8-(2,3,5-trifluorophenyl)-4H-chromene-3-carboxamide]
EC50 [1]: 1.26 µg/mL (≈ 2.72 µM) | EC50 [2]: 0.08 µg/mL (≈ 0.173 µM) | EC50 (C. elegans Slo-1a): > 50100 nM

O=C(N[C@H]1CCOc2ccccc21)c1ccc2nc(-c3ccccc3Cl)cnc2c1 [Example Compound S9-2, 2-(2-Chlorophenyl)-N-[(4S)-3,4-dihydro-2H-chromen-4-yl]quinoxaline-6-carboxamide]
EC50 [2]: 1.95 µg/mL (≈ 4.69 µM) | EC50 (C. elegans Slo-1a): 631 nM

O=C(N[C@H]1CCc2ccccc21)c1ccc2nc(-c3ccccc3Cl)cnc2c1 [Example Compound S9-3, 2-(2-Chlorophenyl)-N-[(1S)-2,3-dihydro-1H-inden-1-yl]quinoxaline-6-carboxamide]
EC50 [2]: 0.61 µg/mL (≈ 1.53 µM) | EC50 (C. elegans Slo-1a): 100 nM

O=C(N[C@H]1CCOc2ccccc21)c1ccc2nc(-c3cccc(Cl)c3Cl)cnc2c1 [Example Compound S9-4, 2-(2,3-Dichlorophenyl)-N-[(4S)-3,4-dihydro-2H-chromen-4-yl]quinoxaline-6-carboxamide]
EC50 [2]: 0.32 µg/mL (≈ 0.711 µM) | EC50 (C. elegans Slo-1a): 20 nM

O=C(N[C@H]1CCc2ccccc21)c1ccc2nc(-c3cccc(Cl)c3Cl)cnc2c1 [Example Compound S9-5, 2-(2,3-Dichlorophenyl)-N-[(1S)-2,3-dihydro-1H-inden-1-yl]quinoxaline-6-carboxamide]
EC50 [2]: 0.37 µg/mL (≈ 0.852 µM) | EC50 (C. elegans Slo-1a): 31.6 nM

O=C(N[C@H]1CCc2ccccc21)c1ccc2nc(-c3cccc(C(F)(F)F)c3Cl)cnc2c1 [Example Compound S9-6, 2-[2-Chloro-3-(trifluoromethyl)phenyl]-N-[(1S)-2,3-dihydro-1H-inden-1-yl]quinoxaline-6-carboxamide]
EC50 [2]: 0.44 µg/mL (≈ 0.94 µM) | EC50 (C. elegans Slo-1a): 31.6 nM
